Laboratory results published in US20160378912A1, “STRUCTURE-BASED MODELING AND TARGET-SELECTIVITY PREDICTION” (EPIGENETX, LLC, priority 2013, published 2016).

Assays:
HIV-RT WT = HIV-RT WT (Human immunodeficiency virus type 1 group M subtype B, UniProt P04585); conditions: Rotili et al. 2012; cited from earlier work
HIV-RT L100I = HIV-RT L100I (Human immunodeficiency virus type 1 group M subtype B, UniProt P04585, L687I); conditions: Rotili et al. 2012; cited from earlier work
HIV-RT K103N = HIV-RT K103N (Human immunodeficiency virus type 1 group M subtype B, UniProt P04585, K690N); conditions: Rotili et al. 2012; cited from earlier work
HIV-RT V106A = HIV-RT V106A (Human immunodeficiency virus type 1 group M subtype B, UniProt P04585, V693A); conditions: Rotili et al. 2012; cited from earlier work
HIV-RT Y181I = HIV-RT Y181I (Human immunodeficiency virus type 1 group M subtype B, UniProt P04585, Y768I); conditions: Rotili et al. 2012; cited from earlier work
HIV-RT Y188L = HIV-RT Y188L (Human immunodeficiency virus type 1 group M subtype B, UniProt P04585, Y775L); conditions: Rotili et al. 2012; cited from earlier work
HDAC isoforms = experiment: HDAC inhibition profiled over several HDAC isoforms (experimental); assay type: biochemical, human
HDLP = conditions: CTS; cited from earlier work
HDAC4 = HDAC4 (Homo sapiens, UniProt P56524); conditions: MTS inhibitors; cited from earlier work
HDAC5 = HDAC5 (Homo sapiens, UniProt Q9UQL6); conditions: MTS inhibitors, HDAC5; cited from earlier work
HDAC7 = biological target: T1, HDAC7 (Homo sapiens, UniProt Q8WUI4); conditions: MTS inhibitors; cited from earlier work
T1 sequence (Q8WUI4 1-952): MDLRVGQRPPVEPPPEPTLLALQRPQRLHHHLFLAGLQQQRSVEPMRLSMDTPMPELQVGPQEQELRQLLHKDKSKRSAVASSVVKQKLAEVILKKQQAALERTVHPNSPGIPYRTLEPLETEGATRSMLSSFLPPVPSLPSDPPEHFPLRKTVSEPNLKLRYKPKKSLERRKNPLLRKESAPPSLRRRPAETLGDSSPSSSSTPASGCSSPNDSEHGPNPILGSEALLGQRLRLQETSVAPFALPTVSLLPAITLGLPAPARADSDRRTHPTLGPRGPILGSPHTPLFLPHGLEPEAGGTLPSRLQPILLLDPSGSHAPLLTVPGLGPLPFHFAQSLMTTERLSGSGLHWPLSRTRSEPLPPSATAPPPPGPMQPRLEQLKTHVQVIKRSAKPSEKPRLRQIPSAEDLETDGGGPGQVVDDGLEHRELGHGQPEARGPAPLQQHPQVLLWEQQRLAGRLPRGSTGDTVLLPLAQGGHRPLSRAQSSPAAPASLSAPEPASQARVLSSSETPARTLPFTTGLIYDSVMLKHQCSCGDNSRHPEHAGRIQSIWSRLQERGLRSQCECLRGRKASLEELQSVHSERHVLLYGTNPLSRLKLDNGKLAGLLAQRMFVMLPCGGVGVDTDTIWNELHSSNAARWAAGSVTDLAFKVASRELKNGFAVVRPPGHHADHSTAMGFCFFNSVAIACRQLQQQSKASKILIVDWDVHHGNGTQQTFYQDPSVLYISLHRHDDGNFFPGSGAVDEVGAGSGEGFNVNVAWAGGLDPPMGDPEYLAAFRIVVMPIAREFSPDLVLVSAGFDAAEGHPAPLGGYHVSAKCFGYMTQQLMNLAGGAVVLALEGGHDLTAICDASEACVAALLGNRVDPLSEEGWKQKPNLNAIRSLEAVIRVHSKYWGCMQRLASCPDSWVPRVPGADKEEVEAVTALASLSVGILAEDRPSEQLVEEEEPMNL

HDAC9 = HDAC9 (Homo sapiens, UniProt Q9UKV0); conditions: MTS inhibitors; cited from earlier work
Sequence of HDAC9 (Q9UKV0 whole entry): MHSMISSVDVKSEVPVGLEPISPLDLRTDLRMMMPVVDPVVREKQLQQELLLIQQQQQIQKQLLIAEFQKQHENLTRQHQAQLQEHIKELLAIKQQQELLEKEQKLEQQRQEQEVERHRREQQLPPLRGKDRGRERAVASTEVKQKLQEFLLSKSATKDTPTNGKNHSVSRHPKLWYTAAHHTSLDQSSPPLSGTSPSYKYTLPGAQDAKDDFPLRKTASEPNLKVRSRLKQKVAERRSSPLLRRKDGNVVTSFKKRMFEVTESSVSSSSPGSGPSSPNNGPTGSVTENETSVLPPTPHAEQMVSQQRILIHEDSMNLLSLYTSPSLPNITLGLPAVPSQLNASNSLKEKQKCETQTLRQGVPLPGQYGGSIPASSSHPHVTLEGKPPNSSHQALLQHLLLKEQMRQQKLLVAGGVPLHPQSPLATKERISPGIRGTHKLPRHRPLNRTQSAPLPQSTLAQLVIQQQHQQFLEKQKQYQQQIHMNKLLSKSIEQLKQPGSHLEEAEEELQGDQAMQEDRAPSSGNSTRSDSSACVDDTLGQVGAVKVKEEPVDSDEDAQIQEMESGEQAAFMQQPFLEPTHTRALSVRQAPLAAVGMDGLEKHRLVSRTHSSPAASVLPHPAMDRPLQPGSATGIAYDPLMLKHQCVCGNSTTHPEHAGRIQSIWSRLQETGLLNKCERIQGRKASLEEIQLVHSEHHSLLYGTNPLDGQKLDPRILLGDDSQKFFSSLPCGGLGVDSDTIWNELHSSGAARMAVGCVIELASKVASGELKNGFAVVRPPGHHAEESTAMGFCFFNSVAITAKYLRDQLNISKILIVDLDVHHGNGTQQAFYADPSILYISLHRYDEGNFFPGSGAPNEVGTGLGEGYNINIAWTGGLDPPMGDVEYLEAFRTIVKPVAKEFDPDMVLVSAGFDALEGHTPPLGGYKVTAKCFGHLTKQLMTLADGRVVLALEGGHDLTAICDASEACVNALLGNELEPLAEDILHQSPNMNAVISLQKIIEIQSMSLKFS

Sequence of HDAC5 (Q9UQL6 whole entry): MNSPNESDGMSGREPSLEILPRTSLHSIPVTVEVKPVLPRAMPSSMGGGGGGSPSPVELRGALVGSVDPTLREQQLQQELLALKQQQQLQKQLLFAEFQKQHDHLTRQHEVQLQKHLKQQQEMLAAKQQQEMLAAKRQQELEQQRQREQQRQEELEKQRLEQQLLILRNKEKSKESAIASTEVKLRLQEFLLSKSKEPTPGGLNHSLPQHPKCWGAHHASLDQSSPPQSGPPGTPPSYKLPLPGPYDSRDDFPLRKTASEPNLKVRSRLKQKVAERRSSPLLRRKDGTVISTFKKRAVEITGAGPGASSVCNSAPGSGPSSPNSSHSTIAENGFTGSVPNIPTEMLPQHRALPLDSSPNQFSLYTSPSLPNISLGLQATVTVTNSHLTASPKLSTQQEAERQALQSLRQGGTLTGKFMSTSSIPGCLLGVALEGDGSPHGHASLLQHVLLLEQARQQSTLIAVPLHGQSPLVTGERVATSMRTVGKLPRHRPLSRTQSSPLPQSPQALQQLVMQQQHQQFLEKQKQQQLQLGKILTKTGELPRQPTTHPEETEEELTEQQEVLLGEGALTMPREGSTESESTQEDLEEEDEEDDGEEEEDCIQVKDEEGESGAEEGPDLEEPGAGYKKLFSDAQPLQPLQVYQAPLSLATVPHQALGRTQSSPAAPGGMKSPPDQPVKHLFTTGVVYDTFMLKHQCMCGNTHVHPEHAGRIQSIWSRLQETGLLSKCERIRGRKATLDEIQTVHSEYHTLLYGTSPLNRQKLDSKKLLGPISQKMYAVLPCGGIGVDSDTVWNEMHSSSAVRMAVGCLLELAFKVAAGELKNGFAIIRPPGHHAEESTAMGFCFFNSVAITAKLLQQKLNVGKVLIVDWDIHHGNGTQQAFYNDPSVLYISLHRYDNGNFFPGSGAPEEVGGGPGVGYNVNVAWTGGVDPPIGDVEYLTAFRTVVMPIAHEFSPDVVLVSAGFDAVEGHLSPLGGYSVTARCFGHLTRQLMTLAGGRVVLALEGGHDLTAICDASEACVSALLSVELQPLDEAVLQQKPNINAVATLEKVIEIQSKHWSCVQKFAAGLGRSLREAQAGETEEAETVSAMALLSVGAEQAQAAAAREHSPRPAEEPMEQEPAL
Sequence of HDAC4 (P56524 whole entry): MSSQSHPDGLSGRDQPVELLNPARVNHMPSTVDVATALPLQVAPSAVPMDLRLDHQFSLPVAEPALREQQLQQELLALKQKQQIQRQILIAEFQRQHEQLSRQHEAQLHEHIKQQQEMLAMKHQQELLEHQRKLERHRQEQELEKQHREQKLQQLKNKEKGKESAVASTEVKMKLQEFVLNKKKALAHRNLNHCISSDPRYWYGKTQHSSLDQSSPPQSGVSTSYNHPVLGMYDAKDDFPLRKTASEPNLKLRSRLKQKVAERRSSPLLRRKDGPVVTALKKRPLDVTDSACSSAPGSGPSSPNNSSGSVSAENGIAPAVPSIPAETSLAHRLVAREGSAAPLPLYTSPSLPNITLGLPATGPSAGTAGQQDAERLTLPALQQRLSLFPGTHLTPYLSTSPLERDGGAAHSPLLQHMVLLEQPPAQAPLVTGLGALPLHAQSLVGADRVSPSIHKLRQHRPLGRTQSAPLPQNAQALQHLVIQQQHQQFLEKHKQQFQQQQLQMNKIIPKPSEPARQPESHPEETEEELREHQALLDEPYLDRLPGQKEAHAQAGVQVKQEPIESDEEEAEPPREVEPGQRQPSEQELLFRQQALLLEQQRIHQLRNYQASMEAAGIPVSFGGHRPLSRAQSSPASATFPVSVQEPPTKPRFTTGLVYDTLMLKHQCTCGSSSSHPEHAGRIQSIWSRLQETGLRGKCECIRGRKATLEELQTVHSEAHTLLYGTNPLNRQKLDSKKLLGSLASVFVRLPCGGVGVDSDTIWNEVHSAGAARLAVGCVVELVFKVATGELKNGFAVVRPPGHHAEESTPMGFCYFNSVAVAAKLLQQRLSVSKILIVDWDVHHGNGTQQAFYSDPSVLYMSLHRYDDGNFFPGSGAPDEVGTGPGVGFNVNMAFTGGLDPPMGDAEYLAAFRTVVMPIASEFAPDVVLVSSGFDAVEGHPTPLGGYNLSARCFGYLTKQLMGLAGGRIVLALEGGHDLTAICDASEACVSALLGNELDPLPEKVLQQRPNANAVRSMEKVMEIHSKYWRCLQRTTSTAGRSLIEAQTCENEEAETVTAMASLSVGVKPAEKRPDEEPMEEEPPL

Compound	Experimental activity (pKi), Exp (HIV-RT WT)	Experimental activity (pKi), Exp (HIV-RT L100I)	Experimental activity (pKi), Exp (HIV-RT K103N)	Experimental activity (pKi), Exp (HIV-RT V106A)	Experimental activity (pKi), Exp (HIV-RT Y181I)	Experimental activity (pKi), Exp (HIV-RT Y188L)	Bioactivity range (ΔpIC50) DpIC50 (HDAC isoforms; range of pIC50 over the profiled HDAC isoforms)	Experimental pIC50 (HDLP)	IC50 (HDLP) [nM]	average pIC50 value, Exp. (HDAC isoforms; average over HDAC isoforms, MTS)	Exp. pIC50 (HDAC4)	Exp. pIC50 (HDAC5)	Exp. pIC50 (HDAC7)	Exp. pIC50 (HDAC9)
C/C=C/N(C)c1nc([C@H](C)c2c(F)cccc2F)c(C)c(=O)[nH]1 [(R)-MC1501]	8.70	7.02	7.02	8.52	6.35	6.71	–	–	–	–	–	–	–	–
Cc1c(N)nc(Nc2ccc(C#N)cc2)nc1[C@@H](C)c1c(F)cccc1F [(S)-MC2082]	4.52	6.74	7.19	6.62	6.29	4.40	–	–	–	–	–	–	–	–
CC(/C=C/C(=O)NO)=C\[C@H](C)C(=O)c1ccc(N(C)C)cc1 (stereo in doubt) [TSA, 7-(4-(Dimethylamino)phenyl)-N-hydroxy-4,6-dimethyl-7-oxo-2,4-heptadienamide]	–	–	–	–	–	–	2.34	6.40	400	–	–	–	–	–
O=C(O)CCCc1ccccc1 [MCL-3]	–	–	–	–	–	–	–	–	–	3.40	2.70	2.70	2.70	2.70
C/C=C/N(C)c1nc([C@@H](C)c2c(F)cccc2F)c(C)c(=O)[nH]1 [(S)-MC1501]	6.93	4.40	6.01	6.45	4.40	4.40	–	–	–	–	–	–	–	–
Cc1c(N)nc(Nc2ccc(C#N)cc2)nc1[C@H](C)c1c(F)cccc1F [(R)-MC2082]	6.81	8.10	8.52	9.52	6.12	8.10	–	–	–	–	–	–	–	–
